Laboratory results published in PubChem BioAssay (NCI).
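96-well plates; 48 h exposure; 5 concentrations. Endpoints by linear interpolation between flanking doses. Not reached: highest tested concentration assigned. Definition used: TGI = concentration required for complete inhibition of growth.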

How the values were obtained:
LXFL 529 NSCLC = experiment: inhibition of tumour cell growth, NCI panel, 48 h
RXF-631 renal = experiment: inhibition of tumour cell growth, NCI panel, 48 h

Structure (SMILES)	TGI (LXFL 529 NSCLC) [µM]	TGI (RXF-631 renal) [µM]
Nc1nc(SCc2ccccc2Cl)c2ncn(C3OC(CO)C(O)C3O)c2n1 (stereo not given)	> 100	
C/C(=C\C(=O)Nc1ccc2n[nH]nc2c1)Nc1ccc2n[nH]nc2c1	> 100	> 100
Cc1nc2ccc(NCCN(C)C)c3c(=O)c4ccccc4n1c23	22.6	15.8
